Experimental data from ChEMBL document CHEMBL1201862, “PubChem BioAssay data set” (2004).
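Tested at 5 concentrations; 48 h exposure; 96-well plates; endpoints linearly interpolated, else capped at highest concentration. GI50 = concentration required for 50% inhibition of growth.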 Activity calls are given as the source filed them. Cut-off read from the data, not from the text of the source: active = GI50 up to about 1.1 µM and inactive = higher.

Legend:
Assay in all cases: NCI-60 cell line screen, 48 h
[1] = system: Hs-578T
[2] = system: MDA-N
[3] = system: BT-549
[4] = system: SNB-78
[5] = system: M19-MEL
[6] = system: XF498
[7] = system: HOP-18
[8] = system: DMS-273

`[N-]=[N+]=C(C(=O)C(=[N+]=[N-])C(=O)c1ccccc1)C(=O)c1ccccc1` was tested, and the GI50 [1] was > 100 µM (inactive), the GI50 [2] was > 100 µM (inactive) and the GI50 [3] was > 100 µM (inactive).

With `Fc1ccc(C2(CCCN3CCc4[nH]c5cc(F)ccc5c4C3)OCCO2)cc1` the GI50 [1] was 3.92 µM (inactive).

`Cc1ccc(NC(=O)C(=O)Cc2cccc[n+]2[O-])cc1C` was tested, and the GI50 [4] was > 100 µM (inactive), the GI50 [5] was > 100 µM (inactive) and the GI50 [6] was > 100 µM (inactive). The GI50 [7] was > 100 µM (inactive).

With `C=C(C)C1CC2(C)C(C)CC(O)CC2C(OC(=O)C=C(C)C)C1O` (configuration not stated) the GI50 [1] was 27.1 µM (inactive), the GI50 [2] was 36.4 µM (inactive) and the GI50 [3] was 42.4 µM (inactive).

In the case of `C=CCc1ccc(Oc2cc(CC=C)c3c(c2O)O[C@@H](CO)[C@H]3c2ccc(O)c(-c3cc(CC=C)ccc3O)c2)cc1`, the GI50 [4] is reported as 52 µM (inactive), the GI50 [8] is reported as 42.9 µM (inactive) and the GI50 [5] is reported as 42.2 µM (inactive). For the same compound, the GI50 [7] was > 100 µM (inactive).

For `C1=C\CCCCN2C[C@H]3CCCC/C=C\CCCCN4CC[C@@H]([C@H](CCCCCC/1)C4)[C@H](C3)C2`, the GI50 [1] was 2.05 µM (inactive), the GI50 [2] was 1.75 µM (inactive) and the GI50 [3] was 6.79 µM (inactive).

In the case of `CC(=O)OCC12CN(C#N)C3C4COC(CC41)C1(C(=O)N(C)c4ccccc41)C32` (configuration not stated), the GI50 [1] is reported as 18.2 µM (inactive) and the GI50 [3] is reported as 2.64 µM (inactive).

For `CC1(C)OCC(COC(=O)C=[N+]=[N-])O1` (configuration not stated), the GI50 [2] was > 100 µM (inactive) and the GI50 [3] was > 100 µM (inactive).

In the case of `Brc1ccc(C[P+]2(c3ccccc3)CCCCC2)cc1.[O-][Cl+3]([O-])([O-])[O-]`, the GI50 [4] is reported as 25.2 µM (inactive), the GI50 [8] is reported as 37.7 µM (inactive) and the GI50 [5] is reported as 25.4 µM (inactive). The GI50 [6] was < 0.01 µM (active) and the GI50 [7] was > 100 µM (inactive).

In the case of `N#CCCN(c1ccc(/C=N/c2ccc(C(=O)O)cc2)cc1)S(=O)(=O)c1ccccc1`, the GI50 [4] is reported as > 100 µM (inactive), the GI50 [8] is reported as > 100 µM (inactive) and the GI50 [5] is reported as > 100 µM (inactive). For the same compound, the GI50 [6] was > 100 µM (inactive) and the GI50 [7] was > 100 µM (inactive).

For `CC1NCCC(CC(=O)O)C1CC(=O)O` (configuration not stated), the GI50 [1] was > 100 µM (inactive), the GI50 [2] was > 100 µM (inactive) and the GI50 [3] was > 100 µM (inactive).

`N#CC1(C#N)NC(c2ccsc2)C(C#N)(C#N)NC1c1ccsc1` (configuration not stated) was tested, and the GI50 [1] was > 100 µM (inactive), the GI50 [2] was > 100 µM (inactive) and the GI50 [3] was > 100 µM (inactive).

For `CCN(CC)CCn1c(=O)c2ccccc2n2c3c(=O)n(C)c(=O)n(C)c3nc12`, the GI50 [1] was 2.01 µM (inactive), the GI50 [2] was 4.85 µM (inactive) and the GI50 [3] was 1.19 µM (inactive).

In the case of `CC1=CC[C@](C)(O)[C@@]2(C)CC[C@H]3C(=C(C)C)C(=O)C[C@]3(C)C[C@H]12`, the GI50 [1] is reported as 38.2 µM (inactive) and the GI50 [3] is reported as 13.8 µM (inactive).

`O=c1c2c(sc3ccccc13)NCN(CCc1ccccc1)C2` was tested, and the GI50 [2] was 25.6 µM (inactive) and the GI50 [3] was 23.1 µM (inactive).

With `COC(=O)c1ccccc1C1CN=NC12Cc1ccc3ccccc3c1C2=O` (configuration not stated) the GI50 [1] was 94.4 µM (inactive), the GI50 [2] was > 100 µM (inactive) and the GI50 [3] was > 100 µM (inactive).

In the case of `Cc1ccc2c(c1)C(=O)/C(=N/Nc1ccc(Cl)cc1)CCO2`, the GI50 [1] is reported as 35.4 µM (inactive), the GI50 [2] is reported as 65.3 µM (inactive) and the GI50 [3] is reported as > 100 µM (inactive).

With `O=C1c2ccccc2C(=O)N1c1nc(-c2ccc(Cl)cc2)cc(N2N=C(c3ccc(Br)cc3)CC2c2ccccc2)n1` (configuration not stated) the GI50 [1] was 3.74 µM (inactive), the GI50 [2] was 1.03 µM (active) and the GI50 [3] was 3.21 µM (inactive).

For `CC(=O)Nc1ccc(S(=O)(=O)N/N=C(\C)CN2C(=O)c3ccccc3C2=O)cc1`, the GI50 [4] was > 100 µM (inactive), the GI50 [8] was > 100 µM (inactive) and the GI50 [5] was > 100 µM (inactive). For the same compound, the GI50 [7] was > 100 µM (inactive).

For `CN1C(Cl)=NS(=O)(=O)c2ccccc21`, the GI50 [1] was > 100 µM (inactive), the GI50 [2] was > 100 µM (inactive) and the GI50 [3] was > 100 µM (inactive).

`Cc1ccc(/C=C2\CN(C)CC3C(c4ccc(C)cc4)=C(C#N)C(=O)NC23)cc1` (configuration not stated) was tested, and the GI50 [1] was > 50 µM (inactive), the GI50 [2] was > 50 µM (inactive) and the GI50 [3] was > 50 µM (inactive).

In the case of `FC(F)(F)C1(c2ccccc2)SCc2nc3ccccc3n21` (configuration not stated), the GI50 [1] is reported as > 100 µM (inactive), the GI50 [2] is reported as 38.3 µM (inactive) and the GI50 [3] is reported as > 100 µM (inactive).

For `O=C(NCCCCNCCCNC(=O)c1cc(-c2ccccc2)nc2ccccc12)c1cc(-c2ccccc2)nc2ccccc12`, the GI50 [1] was 1.96 µM (inactive), the GI50 [2] was 1.83 µM (inactive) and the GI50 [3] was 9.66 µM (inactive).

With `CCCCCCCC/C=C/CCCCCCCC1CC(O)C(=O)O1` (configuration not stated) the GI50 [2] was 59.7 µM (inactive) and the GI50 [3] was 28.9 µM (inactive).

In the case of `C1CCCCC2(CCCCCCCCC3(CCC1)OCCO3)OCCO2`, the GI50 [1] is reported as > 100 µM (inactive) and the GI50 [2] is reported as > 100 µM (inactive).

In the case of `COc1ccc2c(c1)N=C1CSC(c3cc([N+](=O)[O-])ccc3Cl)N1C2` (configuration not stated), the GI50 [1] is reported as 39.8 µM (inactive), the GI50 [2] is reported as 20.1 µM (inactive) and the GI50 [3] is reported as 26.2 µM (inactive).

With `Cc1cc(N2CCCCC2)nc2ccc(Cc3ccc4nc(N5CCCCC5)cc(C)c4c3)cc12` the GI50 [1] was > 100 µM (inactive), the GI50 [2] was > 100 µM (inactive) and the GI50 [3] was > 100 µM (inactive).

With `CCCCCCCCCCCCCC(=O)O.O=CC(O)C(O)C(OC1OC(CO)C(O)C(O)C1O)C(O)CO` (configuration not stated) the GI50 [1] was > 100 µM (inactive).

For `[N-]=[N+]=NC1=CC(=O)c2cccc3cccc1c23`, the GI50 [1] was 17.9 µM (inactive), the GI50 [2] was 46.2 µM (inactive) and the GI50 [3] was 27.1 µM (inactive).

In the case of `Cc1c(Cl)ccc2c(=O)c3cccc(CC(=O)O)c3oc12`, the GI50 [1] is reported as > 100 µM (inactive), the GI50 [2] is reported as > 100 µM (inactive) and the GI50 [3] is reported as 38.5 µM (inactive).

In the case of `c1ccc([P+](CCCCCC[P+](c2ccccc2)(c2ccccc2)c2ccccc2)(c2ccccc2)c2ccccc2)cc1`, the GI50 [1] is reported as 15.3 µM (inactive) and the GI50 [2] is reported as 16.1 µM (inactive).

In the case of `Cc1ccn2c(CCc3nnc4cc(C)ccn34)nnc2c1`, the GI50 [1] is reported as > 100 µM (inactive), the GI50 [2] is reported as > 100 µM (inactive) and the GI50 [3] is reported as > 100 µM (inactive).
